Experiment [1] concerns endothelial cells (HUVEC) recruited by human melanoma cells. Kind of experiment: trans-well endothelial recruitment assay. The class given is cell-based. The settings on record: for ability of melanoma cells to recruit endothelial cells: MeWo, HT-144, SK-Mel-2, SK-Mel-334.2, 1 μM for 72 hours. How it is done:
5×10^4 cancer cells were seeded into 24-well plates approximately 24 hours prior to the start of the assay. HUVEC's were grown to 80% confluency and serum starved in EGM-2 media supplemented with 0.2% FBS for 16 hours. HUVEC's were then pulsed with Cell Tracker Red CMTPX dye (C34552, Invitrogen) for 45 minutes. Meanwhile, cancer cells were washed with PBS, 0.5 mL of 0.2% FBS EGM-2 media was added to each well, and a 3.0 μm HTS Fluoroblock insert (351151, BD Falcon, San Jose, Calif.) was placed into each well. 1×10^5 HUVEC's, resuspended in 0.5 mL of starvation media, were seeded into each trans-well insert, and the recruitment assay was allowed to proceed for 16-18 hours at 37° C. For neutralization antibody and/or recombinant protein experiments, antibody/protein was then added to each well at the appropriate concentration as indicated in the figures: 40 μg/mL anti-ApoE 1D7, 40 μg/mL anti-IgG, 100 μM rhApoE3, and 100 μM BSA. Upon completion of the assay, the inserts were processed and analyzed as described for the matrigel invasion assay above (See Matrigel Invasion Assay).
The endothelial recruitment assay was carried out as previously described (Pencheva et al., 2012; Png et al., 2012). Melanoma cells were treated with DMSO, GW3965, T0901317, or Bexarotene at 1 μM for 56 hours, after which 5×10^4 cells were seeded in a 24-well plate in the presence of each drug and allowed to attach for 16 hours prior to starting the assay. HUVEC cells were serum-starved overnight in EGM-2 media containing 0.2% FBS. The following day, 1×10^5 HUVEC cells were seeded into a 3.0 μm HTS Fluoroblock trans-well migration insert (351151, BD Falcon, San Jose, Calif.) fitted into each well containing cancer cells at the bottom. The HUVEC cells were allowed to migrate towards the cancer cells for 20 hours at 37° C., after which the inserts were processed as previously described (Pencheva et al., 2012). For ApoE antibody neutralization experiments, 40 μg/mL 1D7 anti-ApoE blocking antibody (Heart Institute, University of Ottawa, Ottawa, Canada) or 40 μg/mL anti-IgG control antibody (AB-108-C, R&D Systems, Minneapolis, Minn.) was added to each trans-well insert at the start of the assay.
Subsequently, 5×10^4 cancer cells were seeded into 24-well plates in the presence of each drug or DMSO and allowed to attach for 16 hours prior to starting the assay. Human umbilical vein endothelial cells (HUVEC cells) were serum-starved in 0.2% FBS-containing media overnight. The following day, 1×10^5 HUVEC cells were seeded into a 3.0 μm HTS Fluoroblock insert (351151, BD Falcon) fitted into each well containing the cancer cells at the bottom. The HUVEC cells were allowed to migrate towards the cancer cells for 20 hours, after which the inserts were washed in PBS, fixed in 4% PFA, labeled with DAPI, and mounted on slides. The basal side of each insert was imaged using an inverted fluorescence microscope (Zeiss Axiovert 40 CFL) at 5× magnification, and the number of DAPI-positive cells was quantified using ImageJ.

The test system of experiment [2] is human melanoma cells (MeWo, MeWo-LM2, A375-LM3, HT-144, SK-Mel-334.2). Kind of experiment: tail-vein lung metastatic colonization assay. The class given is in vivo, mouse. The settings on record: for reduction in lung metastatic colonization by MeWo cells: orally administered, immunocompromised mice. How it is done: After 8 hours, the transfection media was replaced with fresh media. After 48 hours, 1×10^5 cells were injected intravenously into NOD-SCID mice to assess lung metastatic colonization or through intracardiac injection into athymic nude mice to assess systemic metastasis. For cell invasion and endothelial recruitment in vitro assays, the cells were used 96 hours post-transfection.
Melanoma cells used for in vivo metastasis assays were transduced with a stably expressed retroviral construct encoding a luciferase reporter gene (Ponomarev et al., 2004), allowing us to monitor the in vivo progression of melanoma cells by bioluminescence imaging. The following numbers of melanoma cells, resuspended in 100 μL of PBS, were injected intravenously via the tail-vein: 4×10^4 MeWo cells, 2.5×10^5 HT-144 cells, 2×10^5 SK-Mel-334.2 cells, 5×10^4B 16F10 cells, and 1×10^5YUMM cells. The MeWo, HT-144, and SK-Mel-334.2 cells were injected into 6-8 week-old sex-matched NOD scid mice, while the B16F10 and YUMM cells were injected into 6-8 week-old sex-matched C57BL/6 mice. In all experiments assessing at the effects of GW3965 on metastasis formation, mice were pre-treated on a control diet or a GW3965-supplemented diet (20 mg/kg) for 10 days. To assess the effect of GW3965 treatment on brain metastasis, 1×10^5 MeWo brain-metastatic derivatives were injected intracardially into athymic nude mice. Immediately following injection, mice were randomly assigned to a control diet or GW3965-supplemented diet (100 mg/kg). To determine whether oral delivery of GW3965 can inhibit the progression of incipient metastasis, NOD Scid mice were intravenously injected with 4×10^4MeWo cells and the cells were allowed to colonize the lungs for 42 days, after which mice were blindedly assigned to a control diet or a GW3965-supplemented diet (100 mg/kg) treatment.

Experiment [3] deals with melanoma cells. Kind of experiment: cell proliferation and viability assay. Conditions: for cell proliferation or cell viability rates: MeWo, HT-144, SK-Mel-334.2, 1 μM, 5 days. The class given is cell-based, human. As for the experimental part:
To determine the effects of miR-199a or miR-1908 over-expression and combinatorial LNA-induced miRNA inhibition on cell proliferation, 2.5×10^4 cells were seeded in triplicate in 6-well plates, and viable cells were counted after 5 days. […] Viable cells were counted after 8, 24, 48, 72, and 120 hours.
After 5 days, the number of viable and dead cells was counted using the trypan blue dye (72-57-1, Sigma-Aldrich), which selectively labels dead cells.

Counter-ions that a name gives are not always drawn.

As to `O=S(=O)(c1ccccc1)N(CC(F)(F)F)c1ccc(C(O)(C(F)(F)F)C(F)(F)F)cc1` [T0901317 1], the “ability of melanoma cells to recruit endothelial cells” value in experiment [1] was “consistently suppressed”. Besides, in experiment [2] (chow 20 mg/kg), the “reduction in lung metastatic colonization by MeWo cells” value came to 23 fold. In addition, the “cell proliferation or cell viability rates” value in experiment [3] is given as “did not affect”.
As for “recombinant ApoE3: recombinant human ApoE3 (4696, BioVision)”, the “endothelial recruitment by metastatic LM2 cells” value in experiment [1] (100 μM added to cell media) was “significantly suppressed”. Moreover, the “ability of pre-treated endothelial cells to migrate towards highly metastatic cancer cells” value in experiment [1] (endothelial cells pre-incubated 100 μM, 24 hours, LM2 cells) is listed as “significantly reduced”. For the same compound, the “suppression of metastatic colonization” value in experiment [2] (MeWo-LM2 cells pre-incubated for 24 hours at 100 μg/mL before injection) was “over 300 fold”. Moreover, the “melanoma cell or endothelial cell in vitro proliferation” value in experiment [3] (100 μM) is given as “did not affect”.
As for `O=C(O)Cc1cccc(OCCCN(Cc2cccc(C(F)(F)F)c2Cl)CC(c2ccccc2)c2ccccc2)c1` [GW3965 2, 3-[3-[N-(2-Chloro-3-trifluoromethylbenzyl)-(2,2-diphenylethyl)amino]propyloxy] phenylacetic acid hydrochloride], the “ability of melanoma cells to recruit endothelial cells” value in experiment [1] is listed as “consistently suppressed”. Moreover, the endothelial recruitment entry in experiment [1] (parental MeWo cells pre-treated for 48 hours) is reported as “decreased”. Further, the “reduction in metastatic colonization capacity of pre-treated cells” value in experiment [2] (MeWo cells pre-treated 1 μM for 48 hours) is “more than 50 fold”. In experiment [2] (chow 20 mg/kg), the “survival times following metastatic colonization” value is given as “significantly prolonged” and the “reduction in lung metastatic colonization by MeWo cells” value was 31 fold. Further, the “in vivo melanoma metastasis (lung, bioluminescence)” value in experiment [2] (chow diet 20 mg/kg, tail-vein injection of parental MeWo cells) was “significant reduction”. In addition, in experiment [2] (diet 20 mg/kg), the “metastatic colonization by HT-144 and SK-Mel-334.2 lines” value is “suppressed”. Moreover, the “suppression of colonization by incipient lung metastases” value in experiment [2] (diet 100 mg/kg from d42) came out at 28 fold. Further, in experiment [2] (diet 100 mg/kg, d77), the “number of macroscopic metastatic nodules formed” value was “decreased”. Further, the “cell proliferation or cell viability rates” value in experiment [3] was “did not affect”.
